Experimental data from US20240208954A1, “OXADIAZOLE COMPOUND, PREPARATION METHOD THEREFOR, PHARMACEUTICAL COMPOSITION AND USE THEREOF” (SHANGHAI INSTITUTE OF MATERIA MEDICA, CHINESE ACADEMY OF …, priority 2020, published 2024).
“Also recorded” adds a separate entry of the source. Read-outs that look alike come from different tables or passages of the source.

Legend:
S1PR1 = target: T1, S1PR1 (Homo sapiens, UniProt P21453); experiment: Agonistic activity test on S1P receptors, FLIPR, CHO-K1/Ga15/EDG1 cells; assay type: cell-based; settings: CHO-K1/Ga15/EDG1 cells, FLIPR agonist mode; read-out: S1PR1 EC50
T1 construct: host or cells: CHO-K1 co-expressing Ga15
T1 sequence (P21453 whole entry): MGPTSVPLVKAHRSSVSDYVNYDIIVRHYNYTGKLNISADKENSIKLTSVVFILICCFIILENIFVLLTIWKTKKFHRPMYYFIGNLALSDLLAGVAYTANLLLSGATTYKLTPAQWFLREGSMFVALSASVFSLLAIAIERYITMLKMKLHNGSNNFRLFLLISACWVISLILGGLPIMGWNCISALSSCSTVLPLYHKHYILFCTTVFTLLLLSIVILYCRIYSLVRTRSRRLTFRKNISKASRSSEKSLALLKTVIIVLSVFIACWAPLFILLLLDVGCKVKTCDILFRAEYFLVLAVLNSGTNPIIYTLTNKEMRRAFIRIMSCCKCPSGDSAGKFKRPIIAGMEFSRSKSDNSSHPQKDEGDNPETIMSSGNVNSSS
Procedure: (§1) Instrument: FLIPR™ TETRA (Molecular Device)
Experimental materials: CHO-K1/Ga15/EDG1 cells constructed by GenScript autonomously.
(§2) Sample processing: Before the experiment, the working solution with the corresponding concentration was prepared by diluting with GPCR dilution buffer.
(§3) After 18-20 hours, the cell culture plat was taken out and added with dye working solution, and then the plate was placed in a 37° C./5% CO2 incubator for 1 hour, and finally equilibrated at room temperature for 15 minutes. Positive agonist working solution was added, and RFU values were detected and recorded. […] The positive agonist working fluid was added to the cell culture plate at the 21st second. […] The antagonistic mode detection program, the overall detection time of the instrument was 120 seconds, and positive antagonist working solution was added to the cell culture plate at the 21st second.
(§4) Data processing: Raw data were obtained via ScreenWorks (version 3.1) and saved as *FMD files on the Kingsray computer network system. Data were collected and analyzed using Excel and GraphPad Prism 6 software programs. For each well, the average fluorescence intensity value from 1 to 20 seconds was used as the baseline, and the maximum fluorescence intensity value from 21 to 120 seconds minus the minimum fluorescence intensity value from 21 to 120 seconds was the relative fluorescence intensity value (ARFU), from which the percentage activation or inhibition can be calculated based on the following equation.
(§5) % Activation Rate=(ΔRFUCompound-ΔRFUBackground)/(ΔRFUAgonist control-ΔRFUBackground)×100%
(§6) The data was analyzed using GraphPad Prism 6 with a four-parameter equation to calculate the EC50 and IC50 values. The four-parameter equation was as follows: y=Bottom+(Top-Bottom)/(1+10^((LogEC50/IC50-X)*HillSlope)), wherein X is the Log value of the concentration and Y was the inhibition rate.

[1] = test system: CCI4-induced liver fibrosis model; experiment: Pharmacological activity test in carbon tetrachloride induced liver fibrosis model; assay type: in vivo, C57BL/6 mice
Procedure: Male C57BL/6 mice were injected intraperitoneally with 5% CCI4(dissolved in corn oil) at 5 mL/kg twice a week to induce liver fibrosis model. Three weeks after modeling, mice were randomly divided into five groups: model control group (Model, n=12), positive compound FTY720 group (2 mg/kg, n=9), positive compound OCA group (30 mg/kg, n=10), low dose group (3 mg/kg), high dose group (10 mg/kg), FTY720 was administered by intraperitoneal injection and the rest of the groups were administered by oral gavage, once a day. After 5 weeks of administration, the mice were sacrificed by dislocation after blood was taken via the posterior ophthalmic plexus, liver and spleen were taken and weighed. Part of the liver was fixed in 4% paraformaldehyde, and part of the liver and serum were stored at −80° C. 10 mice from the same litter were injected intraperitoneally with the same dose of corn oil throughout the experiment as a systemic control.

S1PR3 = S1PR3 (Homo sapiens, UniProt Q99500); experiment: Agonistic activity test on S1P receptors, FLIPR; assay type: cell-based
S1PR3, sequence (Q99500 whole entry, species assumed): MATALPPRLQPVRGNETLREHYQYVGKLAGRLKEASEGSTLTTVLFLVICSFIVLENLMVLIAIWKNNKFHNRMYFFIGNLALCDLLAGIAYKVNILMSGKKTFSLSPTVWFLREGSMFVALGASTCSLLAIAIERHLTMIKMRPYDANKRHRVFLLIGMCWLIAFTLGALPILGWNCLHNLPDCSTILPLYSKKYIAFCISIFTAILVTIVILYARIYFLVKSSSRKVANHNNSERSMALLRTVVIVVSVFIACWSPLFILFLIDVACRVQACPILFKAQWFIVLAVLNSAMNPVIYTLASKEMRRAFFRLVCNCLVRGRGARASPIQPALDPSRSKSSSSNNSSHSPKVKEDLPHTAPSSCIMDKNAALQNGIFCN
Procedure: as §1, §2, §3, §4, §5, §6

S1P receptor = experiment: Subtype selectivity study of compound A1, overall statement; assay type: cell-based; settings: especially for S1P1 and S1P5 subtypes
Procedure: The S1P receptor selectivity was tested for different subtypes using the method described in Experimental Example 1.

[2] = test system: dextran sodium sulfate (DSS)-induced IBD model; experiment: Pharmacological activity test in DSS-induced IBD model; assay type: in vivo, mice
Procedure: The mice were randomly divided into […]: normal control group (Control,n=5), model control group (Model,n=11), positive compound BAF312 group (0.3 mg/kg,n=10), low dose group (0.03 mg/kg,n=10), medium dose group (0.3 mg/kg,n=10), high dose group (3 mg/kg, n=10), and each group was administered by gavage in a volume of 5 mL/kg once a day. DSS with an average molecular weight of 36000˜50000 Da was dissolved in drinking water to make 2% DSS solution, and the mice in the modeling group were allowed to drink it freely for 6 days, while the drug administration treatments were carried out simultaneously. The body weight, fecal hardness and occult blood of mice in each group were observed every day, and the scores of each index were summed to obtain the disease activity index of each animal. After 6 days of completion of modeling and drug administration, the modeling reagents were withdrawn for a 1-day remission period, and the mice were sacrificed by dislocation after blood was taken via the posterior ophthalmic plexus. Colon tissue and spleen were measured for length or weighed, part of the colon was fixed in 4% paraformaldehyde, and all tissues and serum were stored at −80° C.

CC(C)Oc1ccc(-c2nc(-c3ccc(CN4CC(C(=O)O)C4)c4ccccc34)no2)cc1C#N.Cl [Compound A1, 1-((4-(5-(3-cyano-4-isopropoxyphenyl)-1,2,4-oxadiazol-3-yl)naphthalen-1-yl)methyl) azetidine-3-carboxylic acid hydrochloric acid]
EC50 (S1PR1): 0.048 µM | hydroxyproline content in the liver ([1]; high dose (10 mg/kg), 10 mg/kg): significantly alleviated; also recorded: alleviating | mRNA expression of liver fibrosis-related genes (Tgfb, Col1a1) ([1]; high dose (10 mg/kg), 10 mg/kg): significantly downregulated; also recorded: downregulates | liver and spleen organ weights ([1]; oral gavage once a day, 5 weeks): without affecting | ALT levels in serum ([1]; oral gavage once a day, 5 weeks, 3 and 10 mg/kg groups): significantly reduced | collagen deposition in the liver ([1]; pathological section analysis): significantly reduced | EC50 (S1PR3; FLIPR agonist mode, read-out: S1PR3 EC50): > 10 µM | EC50 (S1PR3; subtype selectivity study, read-out: S1P3 EC50): > 10 µM | selectivity for different S1P receptor subtypes (S1P receptor): good selectivity | impaired crypt and inflammatory infiltration in colon sites ([2]; H&E-stained colon sections, high/medium doses (3/0.3 mg/kg)): effectively improve | overall effect in the IBD model ([2]; concluding statement): significant anti-inflammatory as well as pathological ameliorating effects | weight of the spleen ([2]; high/medium/low doses): without affecting | disease process (weight change, stool consistency, rectal bleeding, disease activity index) ([2]; high/medium/low doses (3/0.3/0.03 mg/kg), gavage once a day, to different degrees): effective in alleviating; also recorded: alleviated | shorten of colon length ([2]; high/medium/low doses (3/0.3/0.03 mg/kg), to different degrees): effective in alleviating
